Measured values: patent US20230323028A1, “ADHESIVE PHOTOPROTECTIVE COMPOUNDS AND USES THEREOF” (SKINOSIVE, priority 2019, published 2023)

What was measured:
[1] = λmax UV absorbance in solution; assay type: physicochemical
Procedure: λmax UV absorbance of diethylamino hydroxybenzoyl hexyl benzoate in ethanol/DMSO 9/1 was measured at 357 nm and λmax UV absorbance of Compound #16 was measured at 357 nm.
λmax UV absorbance of diethylamino hydroxybenzoyl hexyl benzoate in ethanol/DMSO 9/1 was measured at 357 nm and λmax UV absorbance of Compound #17 was measured at 357 nm.
λmax UV absorbance of Octocrylene in ethanol/DMSO 9/1 was measured at 305 nm and λmax UV absorbance of Compound #18 was measured at 293 nm.
λmax UV absorbance of Octocrylene in ethanol/DMSO 9/1 was measured at 305 nm and λmax UV absorbance of Compound #19 was measured at 308 nm.
λmax UV absorbance of Ecamsule in Ethanol/H2O/DMSO 5/3/2 was measured at 341 nm and λmax UV absorbance of Compound #20 was measured at 344 nm.
λmax UV absorbance of bemotrizinol in ethanol/benzyl alcohol/DMSO/Phenoxyethanol 63/18/10/9 was measured at 342 nm and λmax UV absorbance of Compound #21 was measured at 342 nm.
λmax UV absorbance of Octocrylene in ethanol was measured at 304 nm and Amax UV absorbance of Compound #23 was measured at 304 nm.

[2] = Bioadhesion in liquid phase: binding to cysteine, assayed by HPLC; settings: 1 to 2 minutes, Ethanol-1×PBS pH 6.8 (pH 6.0 for compound #23)
Procedure: The compounds bio adhesion was carried out in solution, for the protein binding, and for the specific binding of sulfhydryl-reactive chemical groups of cysteine. The compounds were mixed either with an equimolar solution of cysteine (two molar equivalent solution of cysteine for the compounds including two maleimides) or an excess of cysteine solution (five or ten times molar compound concentration) and were incubated 1 to 2 minutes in an Ethanol-1×PBS, pH 6.8 solution and in Ethanol-1×PBS, pH 6.0 solution for the compound #23.
The compound and the compound bound to the cysteine were identified by LC-MSD (Agilent 1260 Infinity II equipped with an Uptisphere strategy C18 or SunFire C18 column) and assayed by HPLC using an Agilent Infinity II Prime UHPLC UV detector system. The separation was achieved by using a gradient phase of water and acetonitrile on an Agilent Poroshell 120 EC-C18 column (3×100 mm, 2.7 μM).

[3] = Adhesion on thiolated polylysine matrix (UV absorbance of coated 96-well microplates); settings: UV absorbance at 300 nm; overnight incubation in ethanol/PBS (90%/10%); washed 10 times with ethanol
Procedure: (§1) Polylysine and Polylysine enriched in SH by thiolation of primary amines using Traut's reagent were used for coating 96-well microplates. Compound #23 (OOM) incubated overnight under orbital agitation on the different matrices (n=3 for each condition) (uncoated wells were used as negative controls), in an ethanol/PBS (90%/10%) solution. After incubation, each microplate well was thoroughly washed 10 times with ethanol, before measuring UV absorbance. Whole UV/Visible absorbance spectrum from 220 to 1000 nm were measured in the center of each microplate well. In addition, specific UV absorbance at 300 nm was measured by matrix scan over the whole the well as a 10×10 matrix.

[4] = Adhesion on polylysine matrix, non thiolated (UV absorbance of coated 96-well microplates); settings: UV absorbance at 300 nm; overnight incubation in ethanol/PBS (90%/10%); washed 10 times with ethanol
Procedure: as §1

pig skin = experiment: UVB protection ex vivo on pig skin by autofluorescence quenching; settings: for UVB Fluorescence (Ex300/Em460), autofluorescence of pig skin: 4 h incubation at 37° C. in Dottisol, Mean ± SD, N = 3
Procedure: UVB protection has been assessed ex vivo on pig skin by measuring the autofluorescence quenching. OOM (Compound #23) and OCR (Octocrylene) were solubilized at the same molar concentration in Dottisol (isosorbide dimethyl ether), then covered 6.25 cm^2 skin square and incubated 4 hours at 37° C., washed or not with 10 mL Ethanol for 5 min on agitation. Then 7 mm diameter skin punches were cut and placed in a black 96-well plate. UVB protection was measured after respectively an excitation at 300 nm and a fluorescence emission was read at 460 nm.

[5] = equimolar cysteine:compound solution (two molar equivalents for compounds with two maleimides)
[6] = excess of cysteine (five or ten times molar compound concentration)
[7] = EtOH Wash (10 mL Ethanol, 5 min)
[8] = in ethanol/benzyl alcohol/DMSO/Phenoxyethanol 63/18/10/9

Row | λmax UV absorbance ([1]; in ethanol/DMSO 9/1) [nm] | Cysteine-bound compound [2, 5] [%] | Free compound [2, 5] [%] | Cysteine-bound compound [2, 6] [%] | Free compound [2, 6] [%] | Compound | further results
1 | 293 | 73 | 27 | 99 | 1 | N#CC(C(=O)NCCNC(=O)CCN1C(=O)C=CC1=O)=C(c1ccccc1)c1ccccc1 [Compound #18, 2-cyano-N-[2-[3-(2,5-dioxopyrrol-1-yl)propanoylamino]ethyl]-3,3-diphenyl-prop-2-enamide] | 
2 |  | 85 | 15 | 100 | 0 | CC1(C)C2CCC1(CS(=O)(=O)NCCNC(=O)CCN1C(=O)C=CC1=O)C(=O)/C2=C\c1ccc(/C=C2\C(=O)C3(CS(=O)(=O)NCCNC(=O)CCN4C(=O)C=CC4=O)CCC2C3(C)C)cc1 [Compound #20, 3-(2,5-dioxopyrrol-1-yl)-N-[2-[[(3Z)-3-[[4-[(Z)-[4-[2-[3-(2,5-dioxopyrrol-1-yl)propanoylamino]ethylsulfamoylmethyl]-7,7-dimethyl-3-oxo-norbornan-2-ylidene]methyl]phenyl]methylene]-7,7-dimethyl-2-oxo-norbornan-1-yl]methylsulfonylamino]ethyl]propanamide] | λmax UV absorbance ([1]; in Ethanol/H2O/DMSO 5/3/2): 344 nm
3 |  | 100 | 0 | 100 | 0 | N#CC(C(=O)OCCCCCCCCNC(=O)CCN1C(=O)C=CC1=O)=C(c1ccccc1)c1ccccc1 [Compound #23, 8-(3-(2,5-dioxo-2,5-dihydro-1H-pyrrol-1-yl)propanamido)octyl 2-cyano-3,3-diphenylacrylate] | bio adhesion on thiolated polylysine matrix [3]: showed a bio adhesion; λmax UV absorbance ([1]; in ethanol): 304 nm; bioadhesion on polylysine matrix (non thiolated) [4]: no bioadhesion; UVB Fluorescence (Ex300/Em460), autofluorescence of pig skin (pig skin; [7]): 34870 ± 2729; UVB Fluorescence (Ex300/Em460), autofluorescence of pig skin (pig skin; No Wash): 25544 ± 3797; reduction of UVB protection after ethanol wash compared to the initial protection before washing (pig skin; ethanol wash): 30%; bio adhesion on pig skin (conclusion) (pig skin; retention of UVB protection after ethanol wash): bio adhesive; UVB protection of the pig skin compared with octocrylene (OCR) (pig skin; same molar concentration, no wash): more than two times higher
4 |  |  |  |  |  | COc1ccc(-c2nc(-c3ccc(OCCCNC(=O)CCN4C(=O)C=CC4=O)cc3O)nc(-c3ccc(OCCCNC(=O)CCN4C(=O)C=CC4=O)cc3O)n2)cc1 [Compound #21, 3-(2,5-dioxopyrrol-1-yl)-N-[3-[4-[4-[4-[3-[3-(2,5-dioxopyrrol-1-yl)propanoylamino]propoxy]-2-hydroxy-phenyl]-6-(4-methoxyphenyl)-1,3,5-triazin-2-yl]-3-hydroxy-phenoxy]propyl]propanamide] | λmax UV absorbance [1, 8]: 342 nm
5 | 357 |  |  |  |  | CCCCCCOC(=O)c1ccccc1C(=O)c1ccc(N(CC)CC)cc1O [diethylamino hydroxybenzoyl hexyl benzoate, reference compound] | 
6 | 357 | 78 | 22 |  |  | CCN(CC)c1ccc(C(=O)c2ccccc2C(=O)OCCNC(=O)CCN2C(=O)C=CC2=O)c(O)c1 [Compound #17, 2-[4-(diethylamino)-2-hydroxy-benzoyl]benzoic acid, 2-[3-(2,5-dioxopyrrol-1-yl)propanoylamino]ethyl ester] | 
7 | 305 |  |  |  |  | CCCCC(CC)COC(=O)C(C#N)=C(c1ccccc1)c1ccccc1 (stereo not shown) [Octocrylene, reference compound] | bio adhesion on thiolated polylysine matrix [3]: did not show a bio adhesion; λmax UV absorbance ([1]; in ethanol): 304 nm; UVB Fluorescence (Ex300/Em460), autofluorescence of pig skin (pig skin; [7]): 201968 ± 11493; UVB Fluorescence (Ex300/Em460), autofluorescence of pig skin (pig skin; No Wash): 64781 ± 3246; UVB protection after the ethanol washing step (pig skin; ethanol wash): corresponds to the unprotected control
8 | 308 | 71 | 29 |  |  | N#CC(C(=O)OCCS(=O)(=O)CCNC(=O)CCN1C(=O)C=CC1=O)=C(c1ccccc1)c1ccccc1 [Compound #19, 2-cyano-3,3-diphenyl-prop-2-enoate, 2-[2-[3-(2,5-dioxopyrrol-1-yl)propanoylamino]ethylsulfonyl]ethyl ester] | 
9 |  |  |  |  |  | CCCCC(CC)COc1ccc(-c2nc(-c3ccc(OC)cc3)nc(-c3ccc(OCC(CC)CCCC)cc3O)n2)c(O)c1 (stereo not shown) [bemotrizinol, reference compound] | λmax UV absorbance [1, 8]: 342 nm
10 | 357 | 75 | 25 | 92 | 8 | CCN(CC)c1ccc(C(=O)c2ccccc2C(=O)OCCOCCNC(=O)CCN2C(=O)C=CC2=O)c(O)c1 [Compound #16, 2-[4-(diethylamino)-2-hydroxybenzoyl]-benzoic acid, 2-[2-[3-(2,5-dioxopyrrol-1-yl)propanoylamino]ethoxy]ethyl ester] | 
11 |  |  |  |  |  | CC1(C)C2CCC1(CS(=O)(=O)O)C(=O)C2=Cc1ccc(C=C2C(=O)C3(CS(=O)(=O)O)CCC2C3(C)C)cc1 [Ecamsule, terephtalylidene dicamphor sulfonic acid, reference compound] | λmax UV absorbance ([1]; in Ethanol/H2O/DMSO 5/3/2): 341 nm
